# ± gives the standard deviation of the reports.
row,glass transition temperature,SMILES
1,140.00 °C,*c1ccc2c(c1)C(=O)N(c1ccc(-c3ccc(N4C(=O)c5ccc(C(*)(C(F)(F)F)C(F)(F)F)cc5C4=O)c(OCCCCCCOc4ccc(/C=C/c5ccc(F)cc5)cc4)c3)cc1OCCCCCCOc1ccc(/C=C/c3ccc(F)cc3)cc1)C2=O (repeat unit)
2,33.00 °C,*/C=C/c1cc(OCCCCCCCCCCCCCCCC)c(/C=C/c2ccc(*)cc2)cc1OCCCCCCCCCCCCCCCC (repeat unit)
3,215.00 °C,*C(=O)Nc1ccccc1NC(=O)c1ccc(N2C(=O)c3ccc(*)cc3C2=O)cc1 (repeat unit)
4,65.00 °C,*CCCCCCC(=O)NCc1ccc(CNC(=O)CCCCCCS*)cc1 (repeat unit)
5,90.00 °C,*c1ccc(-c2ccc3c(c2)C(CCCCCCC#N)(CCCCCCC#N)c2cc(*)ccc2-3)cc1 (repeat unit)
6,300.00 °C,*C(=O)c1ccc2c(c1)C(=O)N(c1ccc(C(=O)Nc3ccc(N4C(=O)c5ccc(*)cc5C4=O)cc3)cc1)C2=O (repeat unit)
7,28.00 °C,*/C=[CH]/[Ge](/[CH]=C/[Si](*)(c1ccccc1)c1ccccc1)([c]1ccccc1)[c]1ccccc1 (repeat unit)
8,105.00 °C,*CCOCCOCCN1C(=O)c2ccc(C(=O)Oc3ccc4cc(OC(=O)c5ccc6c(c5)C(=O)N(*)C6=O)ccc4c3)cc2C1=O (repeat unit)
9,385.00 °C,*C(=O)c1ccc2c(c1)C(=O)N(c1ccc(-c3ccc(N4C(=O)c5ccc(*)cc5C4=O)cc3C)c(C)c1)C2=O (repeat unit)
10,160.00 °C,*Oc1cccc(NC(=O)CCCCC(=O)Nc2ccc(*)cc2)c1 (repeat unit)
11,72.00 °C,*CCCCCCNC(=O)NCc1ccc(CNC(=O)N*)cc1 (repeat unit)
12,145.00 °C,*C(=O)Nc1ccc(S(=O)(=O)c2ccc(N3C(=O)CC(N4C(=O)c5ccc(*)cc5C4=O)C3=O)cc2)cc1 (repeat unit)
13,60.00 °C,*/C=C/c1sc(/C=C/c2ccc3c4ccc(*)cc4n(CC(CC)CCCC)c3c2)c(CC(CC)CCCC)c1CC(CC)CCCC (repeat unit)
14,170.00 °C,*Oc1ccc(Oc2ccc(C(=O)c3ccc(-c4ccc(C(=O)c5ccc(*)cc5)cc4)cc3)cc2)cc1-c1cccc(C)c1 (repeat unit)
15,228.51 °C,*c1ccc(Oc2ccc(Oc3ccc(Oc4ccc(N5C(=O)c6ccc(-c7ccc8c(c7)C(=O)N(*)C8=O)cc6C5=O)cc4)cc3)cc2)cc1 (repeat unit)
16,36.00 °C,*CC(O)COC(=O)CCCCCCCCC(=O)OCC(O)COc1ccc(C(=O)Oc2ccc(O*)cc2)cc1 (repeat unit)
17,17.00 °C,*CC(F)(F)C(F)(F)C(F)(F)COC(=O)c1cccc(C(=O)O*)c1OCCCCC (repeat unit)
18,13.40 °C,*O[Si](*)(C)CCCCCCCCCCC(=O)Oc1ccc(OC(=O)c2ccc(OCC(C)CC)cc2)cc1 (repeat unit)
19,260.00 °C,*c1ccc2c(c1)C(=O)N(c1cccc(C(C)(C)c3ccc(N4C(=O)c5ccc(C(*)(C(F)(F)F)C(F)(F)F)cc5C4=O)cc3)c1)C2=O (repeat unit)
20,100.00 °C,*OC(=O)c1ccc(C(C)(C)c2ccc(C(*)=O)cc2)cc1 (repeat unit)
21,259.50 °C,*C(=O)c1cccc(C(=O)c2ccc3c(c2)C(=O)N(c2cccc(N4C(=O)c5ccc(*)cc5C4=O)c2)C3=O)c1 (repeat unit)
22,80.00 °C,*C#Cc1cc(C(C)(C)C)cc2c3cc(C(C)(C)C)cc(*)c3n(CCCCCCCCCCCCCCCC)c12 (repeat unit)
23,46.00 °C,*Oc1ccc(CC(NC(=O)CCc2ccc(OC(=O)CCCCC(*)=O)cc2)C(=O)OCCCC)cc1 (repeat unit)
24,150.00 °C,*Oc1ccc(NC(=O)CCCCCCCCCCC(=O)Nc2ccc(*)cc2)cc1 (repeat unit)
25,59.00 °C,*Oc1ccc(CC(NC(=O)Cc2ccc(OC(=O)CCC(*)=O)cc2)C(=O)OCCCCCC)cc1 (repeat unit)
26,107.00 °C,*CC(COc1ccc(C2CCCC(CC)(c3ccc(O*)cc3)C2)cc1)OC(C)=O (repeat unit)

row,glass transition temperature,SMILES
1,87.00 °C,*Nc1ccc(*)cc1OCCCCCCCCCCCC (repeat unit)
2,-40.00 °C,*CC(*)C(=O)OCCOCCOC(F)(F)C(F)F (repeat unit)
3,140.00 °C,*CC(*)(C)C(=O)OCC(C)Oc1ccc(-c2ccc(-c3ccc(C#N)cc3)cc2)cc1 (repeat unit)
4,333.00 °C,*C(=O)Nc1ccc(NC(=O)c2ccc3c(c2)C(=O)N(c2ccc(-c4sc(-c5ccc(N6C(=O)c7ccc(*)cc7C6=O)cc5)c(-c5ccccc5)c4-c4ccccc4)cc2)C3=O)cc1 (repeat unit)
5,133.50 °C,*c1ccc(OCCCCCCCCCCCOc2ccc(-c3ccc4nc(-c5cccc(-c6cc(-c7ccccc7)c7cc(*)ccc7n6)c5)cc(-c5ccccc5)c4c3)cc2)cc1 (repeat unit)
6,-8.00 °C,*CCCCCCOC(=O)OCCCCCCCCCCCCOC(=O)OCCCCCCOc1ccc(C(=O)c2ccc(O*)cc2)cc1 (repeat unit)
7,32.00 °C,*CCCCCCOC(=O)Nc1ccc(C)c(NC(=O)O*)c1 (repeat unit)
8,34.00 °C,*CC(*)(CC(=O)OCCOC)C(=O)OCCOC (repeat unit)
9,194.00 °C,*c1ccc(C(=O)Oc2c(C)cc(C(c3cccnc3)c3cc(C)c(OC(=O)c4ccc(N5C(=O)CC(Nc6cccc(NC7CC(=O)N(*)C7=O)c6)C5=O)cc4)c(C)c3)cc2C)cc1 (repeat unit)
10,175.00 °C,*Oc1ccc(/N=N/c2ccc(Oc3ccc(C(C)(C)c4ccc(*)cc4)cc3)cc2)cc1 (repeat unit)
11,28.00 °C,*Oc1ccc(CC(NC(=O)CCc2ccc(OC(=O)CCCCC(*)=O)cc2)C(=O)OCCCCCCCC)cc1 (repeat unit)
12,334.00 °C,*c1ccc(Oc2ccc(-c3ccc(Oc4ccc(-c5nnc(*)c6c(-c7ccccc7)c(-c7ccc8ccccc8c7)c(-c7ccc8ccccc8c7)c(-c7ccccc7)c56)cc4)cc3)cc2)cc1 (repeat unit)
13,97.50 °C,*Oc1cc(CCCC)cc(OC(=O)c2cccc(C(*)=O)c2)c1 (repeat unit)
14,89.00 °C,*CCOC(=O)/C=C/C(=O)NCCCCCCNC(=O)/C=C/C(=O)O* (repeat unit)
15,270.00 °C,*c1cccc(-c2nc3cc(Oc4ccc5nc(-c6ccccc6)c(*)nc5c4)ccc3nc2-c2ccccc2)c1 (repeat unit)
16,285.00 °C,*c1ccc(Oc2ccc(NC(=O)c3cc(C(=O)Nc4ccc(Oc5ccc(-c6nnc(*)o6)cc5)cc4)cc(N4C(=O)c5ccccc5C4=O)c3)cc2)cc1 (repeat unit)
17,265.00 °C,*c1c(C)cc(Cc2cc(C)c(N3C(=O)c4ccc(Oc5cc6ccccc6cc5Oc5ccc6c(c5)C(=O)N(*)C6=O)cc4C3=O)c(C)c2)cc1C (repeat unit)
18,347.50 °C,*c1ccc(C(=O)Nc2ccc(NC(=O)c3ccc(Oc4ccc(-c5nn(*)c(=O)c6ccccc56)c5ccccc45)cc3)cc2)cc1 (repeat unit)
19,175.00 °C,*c1ccc(NC(=O)c2ccc(OCCOCCOc3ccc(C(=O)Nc4ccc5[nH]c(*)nc5c4)cc3)cc2)cc1 (repeat unit)
20,345.00 °C,*c1ccc(-c2nc3ccc(S(=O)(=O)c4ccc5nc(*)c(-c6ccccc6)nc5c4)cc3nc2-c2ccccc2)cc1 (repeat unit)
21,7.50 °C,*O[Si](C)(C)CCC/N=C1\c2ccccc2/C(=N\CCC[Si](*)(C)C)c2c(O)ccc(O)c21 (repeat unit)
22,233.00 °C,*c1ccc2c(c1)C(=O)N(c1ccc(Sc3ccc(Sc4ccc(Sc5ccc(N6C(=O)c7ccc(C(*)(C(F)(F)F)C(F)(F)F)cc7C6=O)cc5)cc4)cc3)cc1)C2=O (repeat unit)
23,-68.00 °C,*O[Si](C)(C)O[Si](C)(C)O[Si](C)(C)O[Si](C)(C)O[Si](C)(C)O[Si](C)(C)Oc1c(*)c2ccccc2c2ccccc12 (repeat unit)
24,125.00 °C,*Cc1ccc(CNC(=O)CC(C)(C)CC(C)C(=O)N*)cc1 (repeat unit)
25,-8.00 °C,*CCCCCCOC(=O)OCCCCOC(=O)OCCCCCCOc1ccc(Oc2ccc(O*)cc2)cc1 (repeat unit)

row,SMILES,glass transition temperature
1,*CC(*)C(=O)c1ccc(C)c(C)c1 (repeat unit),42.00 °C
2,*CCN* (repeat unit) [poly(2-oxazoline)s],-35.77 ± 17 °C
3,*CC(*)CNc1ccc([N+](=O)[O-])cc1C (repeat unit),151.00 °C
4,*CC(*)C(=O)OC(C)C (repeat unit),-5.00 °C
5,*CC(CSCCCC)O* (repeat unit),-65.00 °C
6,*CC(*)C(=O)OCCN(C)C (repeat unit),-39.00 °C
7,*CC(*)c1c(F)c(F)c(P(=O)(O)O)c(F)c1F (repeat unit),330.00 °C
8,*C(=O)c1ccc2c(c1)C(=O)N(c1cccc(P(=O)(c3ccc(Oc4ccc(C56CC7CC(CC(C7)C5)C6)cc4)cc3)c3cccc(N4C(=O)c5ccc(*)cc5C4=O)c3)c1)C2=O (repeat unit),305.00 °C
9,*Oc1ccc(NC(=O)c2ccc(P(=O)(c3ccccc3)c3ccc(C(=O)Nc4ccc(Oc5ccc(P(=O)(c6ccccc6)c6ccc(*)cc6)cc5)cc4)cc3)cc2)cc1 (repeat unit),225.00 °C
10,*Oc1ccc(P(C)(=O)c2ccc(Oc3ccc(P(=O)(c4ccccc4)c4ccc(*)cc4)cc3)cc2)cc1 (repeat unit),238.00 °C
11,*CCCOC(=O)O* (repeat unit),-17.70 °C
12,*N=P(N=P(N=S(*)(=O)NCCC)(NCCC)NCCC)(NCCC)NCCC (repeat unit),6.00 °C
13,*CC(C)(C)S* (repeat unit),-14.00 °C
14,*CC(*)c1ccc(C[Si](C)(C)C)cc1 (repeat unit),82.00 °C
15,*CC(*)(C)C(=O)OCC1CCC1 (repeat unit),114.00 °C

# — the PolyMetriX glass transition set
